Experimental data reported in EP0037516A1, “N-omega substituted derivatives of 1-Desamino-vasopressin analogs” (VEGA LABORATORIES, INC., priority 1980, dated 1981).
Marks after values point to notes of the source that are not given here. *1 amine or outer side, *2 acyl side, *3 side chain or, on linkers, in order; H or OH if unused. Where a SMILES comes first, the peptide text is derived from it. Bridges are numbered along the chain shown (N, C = ends). Side-chain parts run from the residue outwards. [ ]: non-standard residue; d: D form. Thz = O=C(O)[C@@H]1CSCN1; X1 = O=C(CCC[*:2])[*:1]; Mpa = O=C(O)CCS

Key:
[1] = Pressor assay in rats, calibrated against arginine-vasopressin; assay type: in vivo, male Sprague-Dawley rats; conditions: for Peak Potency (pressor activity): 200g male Sprague-Dawley rats, calibrated against arginine-vasopressin; for Mean Peak Potency (Product) F: pressor activity, peak potency multiplied by F; for Ratio of Half-Life of Compound to Parent Half-Life (F): pressor response; for pressor activity (in words): comment on Table 3
[2] = Antidiuretic assay in rats, calibrated against arginine-vasopressin; assay type: in vivo, male Sprague-Dawley rats; conditions: for Peak Potency (antidiuretic activity): 200g male Sprague-Dawley rats, calibrated against arginine-vasopressin; for Mean Peak Potency (Product) F: antidiuretic activity, peak potency multiplied by F; for Ratio of Half-Life of Compound to Parent Half-Life (F): antidiuretic response, comparator not given; for antidiuretic activity (in words): comment on Table 4
Factor VIII [3] = experiment: Factor VIII releasing activity in pentothal-anesthetized dogs, standard clotting assay; assay type: in vivo; conditions: dogs
Method: The 9-Ala-NH2 analogs of Examples XII and XIII were evaluated for ability to stimulate production of Factor VIII by administration to pentothal-anesthestized dogs. These analogs, as well as desmopressin used as a control, were administered i.v. into the external jugular vein at a dose of 10 meg/kg body weight. Factor VIII analysis was performed by standard clotting assay (using normal dog plasma as 100% clotting and severely hemophilic dog plasma as 0% for the standard curve) just prior to injection, and at periodic intervals for up to 4 hours after injection.

Factor VIII [4] = experiment: Factor VIII release, clotting assay in male canine citrated plasma; assay type: in vivo; conditions: for Factor VIII Releasing Activity: male canine citrated plasma, calibrated against desmopressin
Method: Pressor and antidiuretic assays of the compounds of Examples I-IV were carried out in 200g body weight, male Sprague-Dawley rats using the techniques reported by Schaechtelin et al in "Enhancement of the Activity of Angiotensin II by Certain Cations," Molec. Pharmacol., 10, 57-67 (1974) and Cort et al in "Role of the Disulfide Bridge and the C-Terminal Tripeptide in the Anti-diuretic Action of Vasopressin in Man and the Rat", Kidney Internat. , 8, 292-302 (1975), with calibration of responses against a 3-point curve using highly purified arginine-vasopressin of known activity. Similar tests were performed on known vasopressin analogs for purposes of comparison. In addition, the release of Factor VIII by the compounds of Examples I-IV was tested in male canine citrated plasna using the clotting assay described by Prowse et al, in Brit. J. Haematol., 41, 437 (1979), and the results were calibrated against the Factor VIII releasing activity of desmopressin. In all cases, the half-lives of the responses were compared to the standard at equi-peak-potent levels.

[5] = no comparator footnote (parent itself)
[6] = as compared to [8-Lys]-vasopressin (footnote *)
[7] = Pre-Injection, normal dog plasma = 100% clotting
[8] = as compared to [2-Phe,8-Lys]-vasopressin
[9] = as compared to 1-desamino-[8-Lys]-vasopressin (footnote ***)

Structure (SMILES) | Peak Potency (pressor activity) [1] [IU/mg] | Mean Peak Potency (Product) F [1] | Ratio of Half-Life of Compound to Parent Half-Life (F) [1, 5] | Peak Potency (antidiuretic activity) [2] [IU/mg] | Mean Peak Potency (Product) F [2] | Ratio of Half-Life of Compound to Parent Half-Life (F) [2] | Ratio of Half-Life of Compound to Parent Half-Life (F) [1, 6] | Factor VIII Releasing Activity (Factor VIII [3]; 15 min. after i.v. 10 meg/kg) [%] | Factor VIII Releasing Activity (Factor VIII [3]; 60 min. after i.v. 10 meg/kg) [%] | Factor VIII Releasing Activity (Factor VIII [3]; 120 min. after i.v. 10 meg/kg) [%] | Factor VIII Releasing Activity (Factor VIII [3]; 240 min. after i.v. 10 meg/kg) [%] | Factor VIII Releasing Activity (Factor VIII [3]; [7]) [%] | pressor activity (in words) [1] | Ratio of Half-Life of Compound to Parent Half-Life (F) [1, 8] | antidiuretic activity (in words) [2] | Factor VIII Releasing Activity (Factor VIII [4]) [%] | Ratio of Half-Life of Compound to Parent Half-Life (F) [1, 9] | Factor VIII releasing activity (in words) (Factor VIII [4]; comment on Table 5)
NCCCC[C@H](NC(=O)[C@@H]1CCCN1C(=O)[C@@H]1CSSC[C@H](N)C(=O)N[C@@H](Cc2ccc(O)cc2)C(=O)N[C@@H](Cc2ccccc2)C(=O)N[C@@H](CCC(N)=O)C(=O)N[C@@H](CC(N)=O)C(=O)N1)C(=O)NCC(N)=O [[8-Lys]-vasopressin, reference compound] | 220 | 220 | 1.0 | 200 | 220 | 1.0 |  |  |  |  |  |  |  |  |  |  |  | 
NCCCC[C@H](NC(=O)[C@@H]1CCCN1C(=O)[C@@H]1CSSCCC(=O)N[C@@H](Cc2ccc(O)cc2)C(=O)N[C@@H](Cc2ccccc2)C(=O)N[C@@H](CCC(N)=O)C(=O)N[C@@H](CC(N)=O)C(=O)N1)C(=O)NCC(N)=O [1-desamino-[8-Lys]-vasopressin, reference compound] | 126 | 189 |  | 300 | 450 | 1.5 | 1.5* |  |  |  |  |  |  |  |  |  |  | 
NCCCC[C@H](NC(=O)[C@@H]1CCCN1C(=O)[C@@H]1CSSC[C@H](N)C(=O)N[C@@H](Cc2ccccc2)C(=O)N[C@@H](Cc2ccccc2)C(=O)N[C@@H](CCC(N)=O)C(=O)N[C@@H](CC(N)=O)C(=O)N1)C(=O)NCC(N)=O [[2-Phe, 8-Lys]-vasopressin, reference compound] (H-CFFQNCPKG-NH2; disulfide 1-6) | 80 | 80 | 1.0 | 25 | 25 | 1.0 |  |  |  |  |  |  |  |  |  |  |  | 
C[C@H](NC(=O)[C@@H](CCCCNC(=O)CNC(=O)CNC(=O)CN)NC(=O)[C@@H]1CCCN1C(=O)[C@@H]1CSSCCC(=O)N[C@@H](Cc2ccc(O)cc2)C(=O)N[C@@H](Cc2ccccc2)C(=O)N[C@@H](CCC(N)=O)C(=O)N[C@@H](CC(N)=O)C(=O)N1)C(N)=O [Example XIII, 1-Desamino-[Q-D-NE-Lys(Gly-Gly-Gly), 9-Ala-NH2]-vasopressin] ([Mpa]YFQNCP[dK]([Gly-Gly-Gly])A-NH2; disulfide 1-6) |  |  |  |  |  |  |  | 115 | 153 | 175 | 210 | 105 |  |  |  |  |  | 
NCCCC[C@H](NC(=O)[C@@H]1CCCN1C(=O)[C@@H]1CSSC[C@H](NC(=O)CNC(=O)CNC(=O)CN)C(=O)N[C@@H](Cc2ccc(O)cc2)C(=O)N[C@@H](Cc2ccccc2)C(=O)N[C@@H](CCC(N)=O)C(=O)N[C@@H](CC(N)=O)C(=O)N1)C(=O)NCC(N)=O [tGLVP, N^c<-glycyl-glycyl-glycyl-8-lysine-vasopressin, reference compound] (H-GGGCYFQNCPKG-NH2; disulfide 4-9) | 2.1 | 8.4 |  | 1.1 | 9.2 | 4.0 | 4.0* |  |  |  |  |  |  |  |  |  |  | 
NCC(=O)NCCCC[C@H](NC(=O)[C@@H]1CCCN1C(=O)[C@@H]1CSSCCC(=O)N[C@@H](Cc2ccccc2)C(=O)N[C@@H](Cc2ccccc2)C(=O)N[C@@H](CCC(N)=O)C(=O)N[C@@H](CC(N)=O)C(=O)N1)C(=O)NCC(N)=O [Example I, l-Desamino-[2-Phe, 8-N^ε-Lys(Gly)]-Vasopressin] ([Mpa]FFQNCPK(Gly)G-NH2; disulfide 1-6) | 6.9 | 60 |  | 6 | 24 | 4.0 |  |  |  |  |  |  | prolonged pressor activity of higher potency than that of tGLVP | 8.7** | low antidiuretic activity | 101 |  | 
C[C@@H](NC(=O)[C@H](CCCCNC(=O)CNC(=O)CNC(=O)CN)NC(=O)[C@@H]1CCCN1C(=O)[C@@H]1CSSCCC(=O)N[C@@H](Cc2ccc(O)cc2)C(=O)N[C@@H](Cc2ccccc2)C(=O)N[C@@H](CCC(N)=O)C(=O)N[C@@H](CC(N)=O)C(=O)N1)C(N)=O [Example XII, 1-Desamino-[8-N^9-Lys(Gly-Gly-Gly), 9-D-Ala]-vasopressin] ([Mpa]YFQNCPK([Gly-Gly-Gly])[dA]-NH2; disulfide 1-6) |  |  |  |  |  |  |  | 110 | 165 | 185 | 220 | 100 |  |  |  |  |  | 
CC(C)C[C@H](N)C(=O)NCCCC[C@H](NC(=O)[C@@H]1CSCN1C(=O)[C@@H]1CSCCCC(=O)N[C@@H](Cc2ccc(O)cc2)C(=O)N[C@@H](Cc2ccccc2)C(=O)N[C@@H](CCC(N)=O)C(=O)N[C@@H](CC(N)=O)C(=O)N1)C(=O)NCC(N)=O [Example IV, 1-Desamino-1-monocarba-[7-thioPro, 8-NE-Lys(Leu)]-Vasopressin] (YFQNC[Thz]K(Leu)G-NH2; linker N-5 via X1) | 350 | 3675 |  | 450 | 3015 | 6.7 |  |  |  |  |  |  | prolonged pressor activity of higher potency than that of tGLVP |  | considerable antidiuretic activity | 285 | 10.5*** | significant activity in releasing Factor VIII
NCC(=O)NCC(=O)NCC(=O)NCCCC[C@H](NC(=O)[C@@H]1CCCN1C(=O)[C@@H]1CSSCCC(=O)N[C@@H](Cc2ccc(O)cc2)C(=O)N[C@@H](Cc2ccccc2)C(=O)N[C@@H](CCC(N)=O)C(=O)N[C@@H](CC(N)=O)C(=O)N1)C(=O)NCC(N)=O [Example II, 1-Desamino-[8-N^ε-Lys(Gly-Gly-Gly)]-Vasopressin] | 15 | 157.5 |  | 8 | 44 | 5.5 |  |  |  |  |  |  | prolonged pressor activity of higher potency than that of tGLVP |  | low antidiuretic activity | 104 | 10.5*** | 
NCCCC[C@H](NC(=O)[C@@H]1CCCN1C(=O)[C@@H]1CSSCCC(=O)N[C@@H](Cc2ccccc2)C(=O)N[C@@H](Cc2ccccc2)C(=O)N[C@@H](CCC(N)=O)C(=O)N[C@@H](CC(N)=O)C(=O)N1)C(=O)NCC(N)=O [1-desamino-[2-Phe, 8-Lys]-vasopressin, 1-desamino-[2-Phe, 8-Lys]vasopressin, reference compound] ([Mpa]FFQNCPKG-NH2; disulfide 1-6) | 45 | 67.5 |  | 30 | 45 | 1.5 |  |  |  |  |  |  |  | 1.5** |  |  |  | 
